Data taken from patent publication US20240391896A1 (Nantong Jutai Biotech Co., Ltd., priority 2021, published 2024).
pIC50: −log10 of the molar value. Like-named read-outs stand apart in the source and are kept apart here.

Key:
[1] = tested on: Human COL1 (collagen type I); test: Transformation of fibroblasts into myofibroblasts (anti-fibrosis test), collagen type I; assay type: cell-based; details: HFL1 cells, 20 ng/ml TGF-β1, 48 hours, supernatant
Experimental: (§1) (4) Transformation of Fibroblasts into Myofibroblasts (Anti-Fibrosis Test) • I. Main materials
(§2) HFL1 medium: F12K+10% FBS, adherent growth • II. Experimental Setup • 1. Normal group (medium only), model group (induced by 20 ng/ml TGF-β1), test sample group (20 ng/ml TGF-β1+ compound with different final concentration) • 2. 5 compounds, 3 concentration gradients, each gradient 2 repeat wells. • II. Experimental steps • 1. Digesting and counting, 5e^5 cells/well/2 ml, and seeded in 6-well plates. • 2. After adherent, adding TGF-β1 at a final concentration of 20 ng/ml and stimulating for 48 hours. Adding compounds with different final concentrations (0, 5 uM, 20 uM). • 3. Collecting the supernatant, and detecting the amount of col1 and col3 in the supernatant by kit. Lysing the cells with lysate solution, centrifuging, and collecting the supernatant. • 4. Detection of a-SMA and other genes by qPCR ii. Test Results • (1) BCL-9 affinity results are shown in Tables 1.1, 1.2, and 1.3, and the test methods were as described above.

BCL9/β-catenin = biological target: T1, BCL9/β-catenin (Homo sapiens, UniProt P35222); test: FP (BCL-9 avidity) fluorescence polarization competition assay with beta-catenin and FAP-Bcl9 tracer; assay type: binding
T1 sequence (P35222 1-781): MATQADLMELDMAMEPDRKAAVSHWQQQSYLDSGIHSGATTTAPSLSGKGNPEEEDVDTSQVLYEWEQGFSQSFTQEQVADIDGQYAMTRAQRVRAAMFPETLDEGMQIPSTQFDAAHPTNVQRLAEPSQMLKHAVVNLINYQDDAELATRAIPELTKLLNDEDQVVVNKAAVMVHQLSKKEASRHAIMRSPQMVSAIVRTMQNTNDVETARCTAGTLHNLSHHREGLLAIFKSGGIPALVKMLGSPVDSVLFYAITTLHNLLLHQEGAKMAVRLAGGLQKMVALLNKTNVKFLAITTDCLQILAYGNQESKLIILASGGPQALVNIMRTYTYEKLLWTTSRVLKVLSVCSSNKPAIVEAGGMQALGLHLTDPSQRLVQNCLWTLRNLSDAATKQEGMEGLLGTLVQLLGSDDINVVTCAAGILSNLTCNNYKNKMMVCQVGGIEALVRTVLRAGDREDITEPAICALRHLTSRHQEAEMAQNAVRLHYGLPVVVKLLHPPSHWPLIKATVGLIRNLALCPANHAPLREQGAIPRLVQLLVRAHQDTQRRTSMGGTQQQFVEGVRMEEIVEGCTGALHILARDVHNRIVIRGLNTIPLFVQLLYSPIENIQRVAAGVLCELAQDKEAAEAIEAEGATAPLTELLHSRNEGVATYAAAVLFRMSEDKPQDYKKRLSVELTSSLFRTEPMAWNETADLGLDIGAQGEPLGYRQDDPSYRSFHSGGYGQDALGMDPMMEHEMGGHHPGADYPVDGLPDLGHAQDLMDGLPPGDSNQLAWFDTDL
Experimental: Incubating for 2 hours on a horizontal shaker. Then adding 2 nM FAP-Bcl9 tracer to each well, and after incubation for 2H on a horizontal shaker, measuring the […].

collagen type III = test: Transformation of fibroblasts into myofibroblasts (anti-fibrosis test), collagen type III; assay type: cell-based; details: Homo sapiens, Fibroblast; HFL1 cells, 20 ng/ml TGF-β1, 48 hours, supernatant; read-out: IC50 Human COL1 (collagen type III)
Experimental: as §1, §2

Human AXIN2 = test: qPCR of AXIN2 expression in HCT116 cells; assay type: cell-based; details: HCT-116, Table 2, HCT116 cells, AXIN2 vs β-actin, 24 hours
Experimental: Cells were digesting, counting, and plating cells in 24-well plates (flat bottom, clear), with 3×10^5 cells/500 ul DMEM (10% FBS) per well. • 2. Observing the state of cells on the next day, and start dosing after cell attachment is intact
Diluting 514 with DMEM (2% FBS) by gradient dilution with concentrations of 20 μM, 10 μM, 5 μM, 2.5 μM, 1.25 μM, 0.625 μM, 0.3125 μM, 0.15625 μM, 0 μM (equal volume DMSO)
Adding 500 μl of the above different concentrations of 514 to each well, and setting a single well for each concentration gradient except three repeat wells for the 0 μM concentration (double wells for qPCR). • 3. Incubating at 37° C. for 24 hours • 4. Discarding the supernatant, washing once with PBS, and adding trizol at 500/well • 5. RNA extraction (step omitted) • 6. Reverse transcription (step omitted, according to the kit) • 7. qPCR (step omitted, following the kit steps)
• 8. calculation of inhibition rate

Human a-SMA = test: Transformation of fibroblasts into myofibroblasts (anti-fibrosis test), a-SMA; assay type: cell-based; details: HFL1 cells, 20 ng/ml TGF-β1, 48 hours, qPCR
Experimental: as §1, §2

HCT116 cells = test: CCK8 cell viability assay in HCT116 cells; assay type: cell-based; details: Homo sapiens, HCT-116; Table 2, HCT116 cells, 24 hours
Experimental: • 1. HCT116 cell plating
Digesting, counting, and plating the cells in 96-well plates (flat bottom, transparent) with 10,000 cells/100 ul DMEM (10% FBS) per well; • 2. Observing the state of cells on the next day, and start dosing after cell attachment is intact; • 3. diluting 514 with DMEM (2% FBS) by gradient dilution with concentrations of 20 μM, 10 μM, 5 μM, 2.5 μM, 1.25 μM, 0.625 μM, 0.3125 μM, 0.15625 μM, 0 μM (equal volume of DMSO); • 4. Adding 100 μl of the above different concentrations of 514 to each well, and making two repeat wells for each concentration gradient; leaving three blank wells (only adding DMEM 2% FBS culture medium without cells). • 5. Culturing at 37° C. for 24 hours; • 6. Adding 10 μl CCK-8 enhanced solution to each well: due to the small amount added of CCK-8 in each well, it may cause errors resulting from the reagent staining on the wall of the well. It is recommended to gently tap the culture plate after adding the reagent to help mixing; • 7. Incubating in the incubator for 0.5-4 hours: the amount of Formazan formed is not the same for different cell types, in most cases, incubation for 1 hour is enough. If the color development is not enough, incubation can be continued to determine optimal conditions. • 8. Measuring the absorbance at 450 nm and 600 nm (excluding the interference of the background color of the reagent and the absorbance value of the well plate itself); • 9. Using OD450 nm-OD600 nm for the final absorbance, and calculating the inhibition rate:
[formula] • As: absorbance of experimental wells (medium containing cells, CCK-8, drug to be tested); • Ac: absorbance of control wells (medium containing cells, CCK-8, and no drug to be tested); • Ab: absorbance of blank wells (medium without cells and drug to be tested, CCK-8). (3) qPCR • 1. HCT116 cell plating

[2] = Table 2, FP (BCL-9 affinity), read-out: FP
[3] = Table 1.3, compounds 15-20, read-out: BCL-9 avidity FP IC50

pIC50 (BCL9/β-catenin; Table 1.2, compounds 7-16, read-out: BCL-9 avidity FP IC50)	pIC50 (BCL9/β-catenin; [2])	Structure (SMILES)	pIC50 [1]	pIC50 (collagen type III)	pIC50 (Human AXIN2)	pIC50 (Human a-SMA)	pIC50 (HCT116 cells)	pIC50 (BCL9/β-catenin; [3])
5.50	5.50	CC(C)(Oc1cccc(N2CCC[C@@H](C(=O)N(Cc3ccc(-c4cn[nH]c4)cc3)C3CC3)C2)c1Cl)C(=O)N1CCNCC1 [Compound 7, (3R)-1-(2-chloro-3-{[2-methyl-1-oxo-1-(piperazin-1-yl)propan-2-yl]oxy}phenyl)-N-cyclopropyl-N-{[4-(1H-pyrazol-4-yl)phenyl]methyl}piperidine-3-carboxamide]	4.70 to 5.00	4.70 to 5.00	5.84	4.52 to 4.70	5.98	–
–	4.70 to 5.00	CN(c1cccc(N2CCC[C@@H](C(=O)N(Cc3ccc(-c4cn[nH]c4)cc3)C3CC3)C2)c1)C(C)(C)C(=O)N1CCNCC1 [Compound 16, (3R)-N-cyclopropyl-1-(3-{methyl[2-methyl-1-oxo-1-(piperazin-1-yl)propan-2-yl]amino}phenyl)-N-{[4-(1H-pyrazol-4-yl)phenyl]methyl}piperidine-3-carboxamid]	–	–	4.70 to 5.00	–	5.55	4.70 to 5.00
–	–	CC(C)(Oc1cccc(N2CCC[C@@H](NC(=O)N(Cc3ccc(-c4cn[nH]c4)cc3)C3CC3)C2)c1)C(=O)N1CCNCC1 [Compound 17, 1-cyclopropyl-3-[(3R)-1-(3-{[2-methyl-1-oxo-1-(piperazin-1-yl)propan-2-yl]oxy}phenyl)piperidin-3-yl]-1-{[4-(1H-pyrazol-4-yl)phenyl]methyl}urea]	4.70 to 5.00	4.52 to 4.70	5.33	5.00 to 5.30	5.74	–
–	–	CC(C)(Oc1cccc(N2CCC[C@@H](NC(=O)N(Cc3ccc(-c4cn[nH]c4)cc3)C3CC3)C2)c1)C(=O)NCCCN [Compound 19, N-(3-aminopropyl)-2-{3-[(3R)-3-{[cyclopropyl({[4-(1H-pyrazol-4-yl)phenyl]methyl})carbamoyl]amino}piperidin-1-yl]phenoxy}-2-methylpropanamide]	5.23	4.70 to 5.30	5.21	4.70 to 5.30	5.49	–

Structure (SMILES)	pIC50 (BCL9/β-catenin; Table 1.2, compounds 7-16, read-out: BCL-9 avidity FP IC50)	pIC50 (BCL9/β-catenin; [2])	pIC50 [1]	pIC50 (collagen type III)	pIC50 (Human AXIN2)	pIC50 (Human a-SMA)	pIC50 (HCT116 cells)	pIC50 (BCL9/β-catenin; [3])
CC(C)(Oc1cccc(N2CCC[C@@H](NC(=O)N(Cc3ccc(-c4cn[nH]c4)cc3)C3CC3)C2)c1)C(=O)NCCN [Compound 18, N-(2-aminoethyl)-2-{3-[(3R)-3-{[cyclopropyl({[4-(1H-pyrazol-4-yl)phenyl]methyl})carbamoyl]amino}piperidin-1-yl]phenoxy}-2-methylpropanamide]	–	4.70 to 5.00	–	–	5.60	–	5.46	4.70 to 5.00
